Reference: PubChem BioAssay AID248 (DTP/NCI, 2004)
Where “and” joins values, the source holds several entries; their conditions need not be identical. Equal entries are not always repeated. Toxic doses and inconclusive results are not listed. Cut-off read from the data, not from the text of the source: active = T/C of 150% or more; inactive = T/C below 125%.

Tested on: L1210 leukemia ip in BDF1 mice, survival T/C
Assay: NCI In Vivo Anticancer Drug Screen. Data for tumor model L1210 Leukemia (intraperitoneal) in B6D2F1 (BDF1) mice
Details: endpoint: mean survival time, higher = longer survival
Method in brief: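 Tumor was transplanted into mice, which were then dosed with test compound or vehicle alone. Survival was recorded for each group, and the treated figure was expressed relative to the control figure.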

[1] = dose: 100.0 mg/kg/injection, schedule: Q01DX001 (ip), vehicle: saline
[2] = dose: 100.0 mg/kg/injection, schedule: Q01DX001 (ip), vehicle: carboxymethylcellulose (CMC)
[3] = dose: 200.0 mg/kg/injection, schedule: Q01DX001 (ip), vehicle: carboxymethylcellulose (CMC)
[4] = dose: 400.0 mg/kg/injection, schedule: Q01DX001 (ip), vehicle: carboxymethylcellulose (CMC)

Measured: T/C

N=C(N)c1cccc(NC(=O)c2ccc(C(=O)Nc3cccc(C(=N)N)c3)c(N)c2)c1
inactive: dose: 5.0 mg/kg/injection, schedule: Q01DX Z (ip), vehicle: carboxymethylcellulose (CMC) 106 % of control | dose: 10.0 mg/kg/injection, schedule: Q01DX Z (ip), vehicle: carboxymethylcellulose (CMC) 104 % of control | dose: 20.0 mg/kg/injection, schedule: Q01DX Z (ip), vehicle: carboxymethylcellulose (CMC) 120 % of control

C[S+](C)C
inactive: dose: 12.0 mg/kg/injection, schedule: Q01DX009 (ip), vehicle: saline 104 % of control | dose: 25.0 mg/kg/injection, schedule: Q01DX009 (ip), vehicle: saline 93 % of control and 100 % of control | dose: 25.0 mg/kg/injection, schedule: Q04DX003 (ip), vehicle: saline 93 % of control | dose: 50.0 mg/kg/injection, schedule: Q01DX009 (ip), vehicle: Klucel (hydroxypropylcellulose) (HPC) 91 % of control | dose: 50.0 mg/kg/injection, schedule: Q01DX009 (ip), vehicle: saline 100 % of control and 98 % of control | dose: 50.0 mg/kg/injection, schedule: Q04DX003 (ip), vehicle: saline 98 % of control | [1] 96 % of control | dose: 100.0 mg/kg/injection, schedule: Q01DX009 (ip), vehicle: saline 90 % of control | dose: 100.0 mg/kg/injection, schedule: Q04DX003 (ip), vehicle: saline 97 % of control and 88 % of control

CCC(/C=N/N=C(N)N)=N\N=C(N)N
inactive: dose: 15.0 mg/kg/injection, schedule: Q01DX Z (ip), vehicle: saline 97 % of control | dose: 30.0 mg/kg/injection, schedule: Q01DX Z (ip), vehicle: saline 103 % of control | dose: 30.0 mg/kg/injection, schedule: Q01DX Z (oral), vehicle: saline 102 % of control | dose: 60.0 mg/kg/injection, schedule: Q01DX Z (ip), vehicle: saline 103 % of control and 115 % of control | dose: 60.0 mg/kg/injection, schedule: Q01DX Z (oral), vehicle: saline 101 % of control | dose: 120.0 mg/kg/injection, schedule: Q01DX Z (ip), vehicle: saline 108 % of control | dose: 120.0 mg/kg/injection, schedule: Q01DX Z (oral), vehicle: saline 97 % of control and 106 % of control | dose: 240.0 mg/kg/injection, schedule: Q01DX Z (oral), vehicle: saline 102 % of control and 104 % of control | dose: 480.0 mg/kg/injection, schedule: Q01DX Z (oral), vehicle: saline 111 % of control

Cc1c(O)c(Br)c(-c2c(C)c(Br)c(C)c([N+](=O)[O-])c2C)c(O)c1Br
inactive: dose: 75.0 mg/kg/injection, schedule: Q04DX003 (ip), vehicle: Klucel (hydroxypropylcellulose) (HPC) 103 % of control | dose: 150.0 mg/kg/injection, schedule: Q04DX003 (ip), vehicle: Klucel (hydroxypropylcellulose) (HPC) 93 % of control | dose: 300.0 mg/kg/injection, schedule: Q04DX003 (ip), vehicle: Klucel (hydroxypropylcellulose) (HPC) 88 % of control

COC1OC(COC(c2ccccc2)(c2ccccc2)c2ccccc2)C2SC12 (stereo unspecified)
inactive: dose: 50.0 mg/kg/injection, schedule: Q01DX001 (ip), vehicle: carboxymethylcellulose (CMC) 102 % of control | [2] 107 % of control | [3] 100 % of control | [4] 96 % of control

O=Cc1ccc(C(=O)O)cc1
inactive: dose: 100.0 mg/kg/injection, schedule: Q04DX003 (ip), vehicle: saline with Tween-80 98 % of control | dose: 200.0 mg/kg/injection, schedule: Q04DX003 (ip), vehicle: saline with Tween-80 96 % of control | dose: 400.0 mg/kg/injection, schedule: Q04DX003 (ip), vehicle: saline with Tween-80 95 % of control

Nc1ccc2c(c1)C(=O)c1cc(N)ccc1-2
inactive: [2] 102 % of control | dose: 100.0 mg/kg/injection, schedule: Q04DX003 (ip), vehicle: Klucel (hydroxypropylcellulose) (HPC) 103 % of control | [3] 102 % of control | dose: 200.0 mg/kg/injection, schedule: Q04DX003 (ip), vehicle: Klucel (hydroxypropylcellulose) (HPC) 103 % of control | [4] 98 % of control | dose: 400.0 mg/kg/injection, schedule: Q04DX003 (ip), vehicle: Klucel (hydroxypropylcellulose) (HPC) 108 % of control

Cn1cc2c(=O)n(O)c(=O)[nH]c2n1
inactive: dose: 50.0 mg/kg/injection, schedule: Q01DX001 (ip), vehicle: saline 106 % of control | [1] 100 % of control | dose: 200.0 mg/kg/injection, schedule: Q01DX001 (ip), vehicle: saline 102 % of control | dose: 400.0 mg/kg/injection, schedule: Q01DX001 (ip), vehicle: saline 102 % of control
